{"source": "patent US9029414B2", "about": "“Triterpenoid compounds and methods of use thereof” (Biotechnology Research Corporation, priority 2008, dated 2015)", "key": {"BALB/c mice": {"system": "BALB/c mice", "experiment": "Murine model of oxazolone-induced ear edema", "assay_type": "in vivo", "method": "This is a contract research performed by Washington Biotechnology Inc., Columbia, Md., protocol 1041. On day 0, 42 BALB/c mice (female, Harlan Sprague-Dawley, 5-6 weeks) were shaved on the ventral surface of the right ear. 100 μl of the 5% oxazolone solution (Sigma) was then applied to the saved ear. The treated mice were then returned to the cage and kept for additional 6 days. On day 7, the mice were weighed and dosed orally with 10 ml/kg water or DA021 at either 30 mg/kg or 100 mg/kg or topically applied on both sides of both ears with 25 μl betamethasone. Thirty minutes after oral dosing, 5 μl of 3% oxazolone was applied to both sides of the right ear and 5 μl of acetone was applied to both sides of the contralateral ear. Twenty-four hours after 3% oxazolone/acetone application, the mice were euthanized, the ears removed and weighed.\nTo evaluate the efficacy and potency of DA021 in acute inflammation, an oxazolone-induced ear edema model was carried out in mice. Oxazolone-induced ear edema model is a commonly used skin inflammatory animal model. Oxazolone (OA) is an allergen that induces immunological responses that lead to surface edema. […] Betamethasone (BMS) which was used as a positive control, is a corticosteroid that is used as an anti-itching cream and other anti-inflammatory remedies.\nMice were then treated with betamethasone (BMS, mg, topical) or DA021 (mg/kg, p.o.) and the ears were removed and weighed. N=10 per group, significance (p-value) was calculated versus OA+vehicle using the Student's T-test, *=P≦1×10^−7, #=P≦1×10^−12."}, "[1]": {"target": "serotonin (5-HT1D subtype) receptor (Homo sapiens, UniProt P28221)", "sequence (P28221 whole entry)": "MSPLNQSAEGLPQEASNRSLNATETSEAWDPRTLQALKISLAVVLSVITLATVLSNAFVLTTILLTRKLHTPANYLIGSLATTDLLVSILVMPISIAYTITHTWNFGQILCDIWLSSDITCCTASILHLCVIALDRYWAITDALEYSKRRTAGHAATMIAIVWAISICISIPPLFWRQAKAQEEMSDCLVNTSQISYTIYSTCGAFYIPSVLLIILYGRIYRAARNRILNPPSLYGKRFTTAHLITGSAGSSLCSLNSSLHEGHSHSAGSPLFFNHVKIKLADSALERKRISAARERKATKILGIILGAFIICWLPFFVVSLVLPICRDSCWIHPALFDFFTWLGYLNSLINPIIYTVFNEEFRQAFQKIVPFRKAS", "experiment": "Radioligand competition binding assay, 5-HT1D", "conditions": "10 μM in duplicate, read-out: % inhibition of control specific binding", "method": "DA001 was evaluated against 109 receptor binding assays and 17 enzyme assays, comprising of selective, central and peripheral therapeutically-relevant targets. Radioligand competition assays were conducted whereby DA001 was tested at one concentration (10 μM) in duplicate. […] It could compete with the radioligand [^125I-NDP-alpha-melanocyte-stimulating hormone (α-MSH)] binding for MC1 and MC4 but not MC3 and MC5 nor the related family, the melanin concentrating hormone receptors (MCH1 and MCH2)."}, "[2]": {"system": "C/EBP-b and c-fos expression in cortical neurons", "experiment": "C/EBP-b and c-fos mRNA (real-time PCR) in cortical neurons", "assay_type": "cell-based", "conditions": "vs DMSO", "method": "FIG. 4. DA001 induces CEBPb mRNA in cortical neurons. Cortical neurons were incubated with DA001 or the DMSO control for 3 different time intervals. Gene expression was normalized against the house-keeping gene, hypoxanthine phosphoribosyltransferase 1 (HPRT1) and glyceraldehyde 3-phosphate dehydrogenase (GAPDH) and compared to the control (DMSO) treatment. Relative change in gene expression induced by DA001 was compared with DMSO. Asterisk represents P<0.05.\nCortical neurons of 11 DIV-12 DIV were pre-incubated with DA001 or DMSO for 24 hours. Cells were washed in Locke's medium without magnesium for 15 min, followed by the treatment of NMDA (20 μM) or water for 20 min. Neurons were incubated with normal growth medium and total RNA were extracted at different time intervals after or without NMDA treatment. Total RNA was extracted using RNeasy Mini kit (Qiagen) according to the manufacturer's protocol, and was reverse-transcribed into single-stranded cDNA with SuperScript II Reverse Transcriptase (Invitrogen) and oligo-dT primers. Real-time Quantitative PCR was performed using Power SYBR Green PCR Master Mix (Applied Biosystems) on the Mx3000P Real-Time PCR System (Stratagene). […]\nCortical neurons were treated with DA001 at different time intervals. The expression of CCAAT/enhancer binding protein beta (C/EBP-b) and c-fos was measured at three different time intervals by real-time PCR. […]"}, "[3]": {"system": "lymphocyte infiltrates in spinal cord of EAE mice", "experiment": "Hematoxylin and eosin staining of spinal cords of EAE mice", "assay_type": "in vivo", "conditions": "DA001-treated vs vehicle-treated EAE mice", "method": "On day 21, animals were anesthetized intraperitoneally with 4% (w/v) chloral hydrate (BDH) in 0.9% (w/v) saline (USB). Once the anesthetics has set it, the animals were then perfused transcardially (Gilson) with 50 mL of 37° C., 0.005% (w/v) heparinized (Sigma) saline (USB), followed by 80 mL of ice-cold, 4% (w/v) paraformaldehyde (Sigma) in Dulbecco's Phosphate Buffered Saline (GIBCO). The perfused spinal cords were then further fixed in 4% (w/v) paraformaldehyde (Sigma) overnight at 4° C. After overnight incubation, the samples were prepared in an automated tissue processor for dehydration, clearing and paraffin infiltration (Leica EG1150H) followed by paraffin embedding (Leica RM2255). After overnight incubation at room temperature, the blocks were sectioned at 6 μm thickness on microtome (Leica 1250) and laid on Histobond slides (Merienfeld). The slides were incubated at 60 C oven for 24 h before being stained. On the day of staining, the slides were rehydrated in a series of EtOH solutions. The rehydrated slides were then submerged in hematoxyline solution for 20 min at room temperature. The slides were differentiated in acidic solution before being fixed in a series of EtOH solutions then eosin at 20 min in room temperature. […]"}}}
{"smiles": "C=C(C)[C@@H]1CC[C@]2(/C=N/O)CC[C@]3(C)C(CCC4[C@@]5(C)CCC(=O)[C@@](C)(CO)[C@@H]5CC[C@]43C)C12", "note": "(some centres unmarked) [DA021]", "values": [{"measurement": "Change in Ear Weight (mg), Average", "setting": "BALB/c mice; 30 mg/kg po", "value": 48.3, "unit": "mg"}, {"measurement": "Change in Ear Weight, % Inhibition", "setting": "BALB/c mice; 30 mg/kg po", "value": 31.7, "unit": "%"}, {"measurement": "Change in Ear Weight (mg), Average", "setting": "BALB/c mice; 100 mg/kg po", "value": 33.3, "unit": "mg"}, {"measurement": "Change in Ear Weight, % Inhibition", "setting": "BALB/c mice; 100 mg/kg po", "value": 52.9, "unit": "%"}]}
{"smiles": "C=C(C)[C@@H]1CC[C@]2(C(=O)O)CC[C@]3(C)C(CC[C@@H]4[C@@]5(C)CC[C@H](O[C@@H]6OC[C@H](O)[C@H](O)[C@H]6O[C@@H]6O[C@@H](C)[C@H](O)[C@@H](O)[C@H]6O)[C@@](C)(CO)[C@@H]5CC[C@]43C)[C@@H]12", "note": "(stereo partly drawn) [DA001, 3-O-[α-L-rhamnopyranosyl-(1→2)-α-L-arabinopyranosyl]-3,23-dihydroxy-20(29)-lupen-28-oic acid]", "values": [{"measurement": "inhibition at 10 µM", "setting": "[1]", "value": 30, "unit": "%"}, {"measurement": "C/EBP-b expression (mRNA)", "setting": "[2]; after a 2-day treatment", "value": "induced C/EBP-b expression"}, {"measurement": "c-fos expression (mRNA)", "setting": "[2]; similar conditions", "value": "did not affect expression of c-fos"}, {"measurement": "lymphocytes surrounding axons / lymphocyte infiltration in spinal cord (H&E)", "setting": "[3]", "value": "dramatically reduced"}]}
